Test results taken from article PMC8395935 (Medical Sciences, 2021).

How the values were obtained:
humans = details: 10 mg/day dose for 42 days as tolerated, patients with initial hyperlipidemic response; cited from earlier work
Description: (§1) Triglycerides were one mechanism we hypothesized rapamycin could impact insulin BBB transport. […] A study in humans reported an increase in the serum triglyceride levels by approximately 47% follow ...

mice [1] = details: cited from earlier work
Description: as §1

CD-1 mice [2] = assay: Intravenous injection study with multiple-time regression analysis after chronic rapamycin treatment; details: for Vi (125I-insulin vascular binding) / Ki (125I-insulin BBB transport): rapamycin 8 mg/kg IP daily for 2 weeks, i.v. tracer
Experimental: (§2) The vehicle was prepared by creating a 1.2% DMSO solution in 5% Tween 80, 5% PEG 400.
(§3) The blood glucose was measured via the tail vein (AlphaTrak2, Abbott Laboratories, Chicago, IL, USA). […] The radioactivity circulated for times between 1–10 min, after which the carotid artery was cut to collect blood. The mice were immediately decapitated and the whole brain was removed and weighed. The blood was centrifuged at 5400 g for 10 min and the amount of radioactivity in the serum (50 µL) and the whole brain was counted in a gamma counter (Wizard2, PerkinElmer, Waltham, MA, USA). Two separate cohorts of mice were combined in the final analyses. […] Naïve male mice were anesthetized as described.
(§4) The exposure time is calculated by the formula:(1) Exposure time=∫0tCptdt/Cpt where Cp(t) is the level of radioactivity (cpm) in the serum at time (t). The exposure time corrects for the clearance of peptide from the blood. […] The slope of the linearity measures the Ki and is reported with its standard error term. The y-intercept of the linearity measures the Vi, the initial volume of distribution in brain at t = 0 [11].

aorta = assay: Western immunoblotting of insulin signaling proteins in the aorta; type: in vivo, mice; details: 2 weeks rapamycin 8 mg/kg
Experimental: (§5) Following a 6 h fast, blood glucose was taken. The mice were anesthetized as described above, the thoracic cavity was opened, and blood was collected from the descending aorta. […] The brain vasculature was washed out by perfusing 20 mL of ice cold LR into the left ventricle of the heart. The brain was removed and split into the right and left hemispheres. The aorta was also removed. The blood was centrifuged at 5400 g for 10 min and the serum was collected. All the tissues were snap frozen in liquid nitrogen and stored at −80 °C until further processing.
The right hemisphere was crushed with a mortar and pestle in liquid nitrogen and approximately 100 mg of tissue was homogenized in radioimmunoprecipitation assay (RIPA) buffer (150 mM NaCl, 0.5% deoxycholic acid, 0.1% sodium dodecyl sulfate (SDS), 20 mM Tris HCl, and 2 mM ethylenediaminetetraacetic acid (EDTA)) plus freshly added 1/100 dilutions of a protease inhibitor cocktail (Sigma-Aldrich), 1mM sodium orthovanadate, and a phosphatase inhibitor (1 tablet PhosSTOP per 10 mL buffer) (Roche, Basel, Switzerland). The aortas were homogenized in the same lysis buffer. The samples were sonicated at 40% amplitude prior to centrifugation at 12,000× g for 10 min at 4 °C. The supernatants were collected and frozen at −80 °C. The protein was measured using the Pierce BCA Protein Assay Kit (Thermo Fisher Scientific, Rockford, IL, USA). […]

CD-1 mice [3] = assay: Measurement of hormone levels in serum and brain lysate (Bio-Plex Pro Mouse Diabetes Assay); type: in vivo; details: 2 weeks rapamycin 8 mg/kg
Experimental: as §5
The right hemisphere was crushed with a mortar and pestle in liquid nitrogen and approximately 100 mg of tissue was homogenized in radioimmunoprecipitation assay (RIPA) buffer (150 mM NaCl, 0.5% deoxycholic acid, 0.1% sodium dodecyl sulfate (SDS), 20 mM Tris HCl, and 2 mM ethylenediaminetetraacetic acid (EDTA)) plus freshly added 1/100 dilutions of a protease inhibitor cocktail (Sigma-Aldrich), 1mM sodium orthovanadate, and a phosphatase inhibitor (1 tablet PhosSTOP per 10 mL buffer) (Roche, Basel, Switzerland). The aortas were homogenized in the same lysis buffer. The samples were sonicated at 40% amplitude prior to centrifugation at 12,000× g for 10 min at 4 °C. The supernatants were collected and frozen at −80 °C. The protein was measured using the Pierce BCA Protein Assay Kit (Thermo Fisher Scientific, Rockford, IL, USA).
A panel of 8 metabolic hormones was measured in the brain lysate and serum using a Bio-Plex Pro Mouse Diabetes Assay (Bio-Rad Laboratories, Hercules, CA, USA): ghrelin, glucose-dependent insulinotropic peptide (GIP), glucagon-like peptide-1 (GLP-1), glucagon, insulin, leptin, plasminogen activator inhibitor-1 (PAI-1), and resistin. The serum was diluted 1:4 with the kit diluent. Twenty µg/µL protein lysate samples were measured from the right hemisphere. The samples were measured according to the manufacturer and read on a Bio-Plex 200 (Bio-Rad Laboratories).

CD-1 mice [4] = assay: Body weight and fasting blood glucose after chronic rapamycin treatment; type: in vivo
Experimental: as §2, §3

CD-1 mice [5] = assay: Intravenous injection study with multiple-time regression analysis after an acute rapamycin i.v. injection; details: male CD-1 mice
Experimental: as §3, §4

CD-1 mice [6] = assay: Serum triglyceride levels after chronic rapamycin treatment; type: in vivo; details: two-week rapamycin treatment 8 mg/kg IP daily; males and females; n = 4/group
[7] = following an 8 mg/kg body weight IP injection; cited from earlier work
mice [8] = details: cited from earlier work; remark: listed apart in the source
Description: We observed a decrease in body weight only in males.

CD-1 mice [9] = assay: Transcardiac brain perfusion (absence of serum factors) after chronic rapamycin treatment; details: rapamycin 8 mg/kg IP daily for 2 weeks
Experimental: as §2
Perfusate was collected throughout the study to determine the average cpm/µL of perfusate. After perfusion, the whole brain was weighed and the amount of radioactivity was counted in a gamma counter (Wizard2, PerkinElmer). The brain/perfusate ratios were calculated by dividing the cpm in a gram of brain by the cpm in a µL of perfusate to yield the units of µL/g.
as §4

CD-1 mice [10] = assay: Measurement of serum cytokines (Bio-Plex Pro Mouse Cytokine Assay); type: in vivo; details: 2 weeks rapamycin 8 mg/kg
Experimental: as §5
A panel of 23 cytokines was measured in the brain protein lysate and serum using a mouse Bio-Plex Pro Mouse Cytokine Assay (Bio-Rad Laboratories): interleukin (IL)-1α; IL-1β; IL-2; IL-3; IL-4; IL-5; IL-6; IL-9; IL-10; IL-12(p40); IL-12(p70); IL-13; IL-17; eotaxin (CCL11); granulocyte colony-stimulating factor (G-CSF); granulocyte-macrophage colony-stimulating factor (GM-CSF); interferon (IFN)-γ; keratinocyte chemoattractant (KC) (CXCL1); monocyte chemoattractant protein (MCP)-1 (CCL2); macrophage inflammatory protein (MIP)-1α (CCL3); MIP-1β (CCL4); and regulated on activation, normal T cell expressed and secreted (RANTES; CCL5) and tumor necrosis factor (TNF)-α). The serum samples were diluted 1:4 with the kit sample diluent. The samples were measured according to the manufacturer and read on a Bio-Plex 200 (Bio-Rad Laboratories).

[11] = female CD-1 mice, transcardiac perfusion

- Vi (125I-insulin vascular binding) (CD-1 mice [2]; female CD-1 mice): 9.9 ± 2.9 µL/g
- Ki (125I-insulin BBB transport) (CD-1 mice [2]; female CD-1 mice, linear regression not significant (ns)): 0.73 ± 0.34 µL/g/min
- Vi (125I-insulin vascular binding) (CD-1 mice [2]; male CD-1 mice): 4.0 ± 1.0 µL/g
- Ki (125I-insulin BBB transport) (CD-1 mice [2]; male CD-1 mice, slope ± standard error, p = 0.055 vs vehicle): 1.32 ± 0.19 µL/g/min
- Ki (unidirectional influx of 125I-insulin from blood to brain) (CD-1 mice [5]; rapamycin 400 ng i.v. 10 min before 125I-insulin i.v., brain/serum ratio corrected with 99mTc-albumin, 1-10 min, slope ± standard error, gamma counter): 0.541 ± 0.13 µL/g/min
- Vi (125I-insulin vascular binding) (CD-1 mice [5]; rapamycin 400 ng i.v. 10 min before 125I-insulin i.v., y-intercept of regression, p = 0.02 vs vehicle): 10.1 ± 1.3 µL/g
- rate of insulin BBB transport (Ki) (CD-1 mice [5]; rapamycin 400 ng i.v. 10 min before tracer, p = 0.63 vs vehicle): 0.54 ± 0.1 µL/g/min
- Ki (125I-insulin BBB transport, absence of serum factors) (CD-1 mice [9]; [11]): 1.89 ± 0.63 µL/g/min
- Vi (125I-insulin vascular binding, absence of serum factors) (CD-1 mice [9]; [11]): 8.3 ± 2.1 µL/g
- Vi (125I-insulin vascular binding, absence of serum factors) (CD-1 mice [9]; male CD-1 mice, transcardiac perfusion): 8.0 ± 1.7 µL/g
- Ki (125I-insulin BBB transport, absence of serum factors) (CD-1 mice [9]; male CD-1 mice, transcardiac perfusion 2 mL/min, 1-5 min, brain/perfusate ratio vs clock time): 1.35 ± 0.53 µL/g/min
SMILES: CO[C@H]1C[C@@H]2CC[C@@H](C)[C@@](O)(O2)C(=O)C(=O)N2CCCC[C@H]2C(=O)O[C@H]([C@H](C)C[C@@H]2CC[C@@H](O)[C@H](OC)C2)CC(=O)[C@H](C)/C=C(\C)[C@@H](O)[C@@H](OC)C(=O)[C@H](C)C[C@H](C)/C=C/C=C/C=C/1C [Rapamycin]
- increase in serum triglyceride levels (humans): approximately 47%
- increase in serum triglyceride levels (mice [1]; growth hormone receptor knockout male mice, 4 mg/kg every other day for 20 weeks): approximately 12%
- serum triglyceride levels (mice [1]; mice fed rapamycin orally): no differences were observed
- vascular marker 99mTc-albumin (BBB integrity) (CD-1 mice [2]; two-week rapamycin treatment, data not shown): no effect
- MAPK protein expression relative to β-actin (aorta; males and females, treatment p = 0.006, n = 3-4/group): significant increase
- phosphorylated Akt (pAkt Ser473) relative to total Akt (aorta; only in males, interaction p = 0.0918, n = 3-4/group): trend in decreased levels
- serum GLP-1 levels (CD-1 mice [3]; 6 h fast, treatment p = 0.015, n = 4/group): significantly increased
- serum resistin levels (CD-1 mice [3]; males and females, 6 h fast, p < 0.0001, n = 4/group): significantly decreased
- ghrelin, GIP, glucagon, or leptin levels (CD-1 mice [3]; serum, 6 h fast, n = 4/group): no effect
- brain insulin levels (CD-1 mice [3]; whole brain lysate, treatment p = 0.034, post hoc p = 0.014, n = 3-4/group): significant differences in females only
- body weight gain (CD-1 mice [4]; 2 weeks of rapamycin 8 mg/kg IP daily, males n = 24-34, females n = 18-19): impacted body weight gain in males only
- fasting blood glucose levels (CD-1 mice [4]; females, 2 weeks rapamycin 8 mg/kg IP daily, 6 h fast, p = 0.19): did not have the same increase
- mean fasting blood glucose levels (CD-1 mice [4]; males, 2 weeks rapamycin 8 mg/kg IP daily, 6 h fast, p < 0.001 vs vehicle (157 mg/dL), n = 12-16/group): 226 mg/dL
- serum triglyceride levels (CD-1 mice [6]): did not elicit a significant change
- blood rapamycin levels [7]: 100 ng/mL
- glucose tolerance (mice [8]; 2 weeks of daily injections of a fourfold lower concentration than the current study): impair glucose tolerance
- serum glucose levels (mice [8]; five weeks of daily rapamycin treatment, mice fasted overnight): increase
- serum IL-2 levels (CD-1 mice [10]; 6 h fast, p = 0.009, n = 3/group): increased
- serum IL-17 levels (CD-1 mice [10]; 6 h fast, p = 0.023, n = 3/group): increased
- serum IL-3 levels (CD-1 mice [10]; 6 h fast, treatment p = 0.004, post hoc in males p = 0.007, n = 3/group): increased significantly
- serum TNF-α, RANTES, and GM-CSF levels (CD-1 mice [10]; not statistically significant (0.05 < p < 0.07)): trend towards an increase
